Holding throughout (format): in vivo
Data set [1] deals with M. domestica. Description: track-spray of acetone-water solution, M. domestica (Example A). The settings on record: acetone-water (5:95). Here is the method:
(§1) The compound of Example 1 was administered in acetone-water (5:95) by track-spray to a range of insect and acarine species, giving the following results.

Data set [2] deals with S. granarius. Description: track-spray of acetone-water solution, S. granarius (Example A). The settings on record: acetone-water (5:95). Here is the method: as §1
Data set [3] deals with T. castaneum. Briefly: track-spray of acetone-water solution, T. castaneum (Example A). The settings on record: acetone-water (5:95). How it is done:
as §1

Data set [4] deals with A. aegypti (larvae). Briefly: track-spray of acetone-water solution, A. aegypti larvae (Example A). The settings on record: acetone-water (5:95). Here is the method:
as §1

Data set [5] relates to C. quinquefasciatus. Description: track-spray of acetone-water solution, C. quinquefasciatus (Example A). The settings on record: acetone-water (5:95). Here is the method: as §1
For data set [6], the system named is Musca domestica. Briefly: spray onto 20 female Musca, mortality after 2 days (Example C). Conditions: 25° C. How it is done: (§2) The compounds of the invention were tested by dissolving them in acetone (5%) and then diluting in water/`Synperonic` (94.5%/0.5%) to give a water emulsion. ("Synperonic" is a R.T.M. of I.C.I. plc and is nonylphenol ethoxylate in aqueous solution to give 27%; available from B.D.H., Poole, Dorset, England). The solution was then used to treat the following insects.
20 female Musca were contained in a cardboard cylinder with gauze over either end. Solution containing the compound was sprayed onto the insects so enclosed and mortality assessed after 2 days at 25° C.

Data set [7] deals with Plutella xylostella. Briefly: fourth instar Plutella larvae sprayed and added to sprayed chinese cabbage leaf (Example C). Conditions: 2 days, 25° C. Here is the method:
as §2
7 Fourth instar Plutella larvae were sprayea with the solution containing the compound and added to a chinese cabbage leaf which had been similarly sprayed and left to dry. Mortality was assessed after 2 days at 25° C.

For data set [8], the system named is Myzus persicae. Description: adult Myzus on chinese cabbage leaf disc sprayed (Example C). Conditions: at 200 ppm; 2 days, 25° C. Here is the method:
as §2
10 adult Myzus were placed on a leaf disc of chinese cabbage. 24 hours later the disc was sprayed with the solution containing the compound. Mortality was assessed after 2 days at 25° C.

The test system of data set [9] is Tetranychus urticae. Description: leaf discs of infested french bean sprayed (Example C). The settings on record: 2 days, 25° C. How it is done:
as §2
Leaf discs of infested french bean were sprayed with the solution containing the compound. Mortality was assessed after 2 days at 25° C.

The test system of data set [10] is Tribolium castaneum. Briefly: adults on treated wheat, mortality after 6 days, Tribolium (Example C). Conditions: at 1000 ppm, 25° C. Here is the method: as §2
20 adult Sitophilus and Tribolium were added to 10 g wheat which had been previously treated with 2 ml of the solution containing the compound. Mortality was assessed after 6 days at 25° C.

Data set [11] has as its system Spodoptera littoralis. Description: sprayed leaves infested with newly hatched Spodoptera larvae (Example C). Conditions: at 200 ppm, +pip but, 3 days. Here is the method:
as §2
Uninfested leaves were sprayed with the test solution containing the compound (+pip but) and left to dry. These were then infested with 10 newly hatched larvae. Mortality was assessed after 3 days.

Data set [12] has as its system Diabrotica undecimpunctata. Description: 2nd instar larvae and their food sprayed on filter paper (Example C). Conditions: at 1000 ppm; 2nd instar larvae, 2 days. Here is the method: as §2
2nd instar larvae and their food were sprayed on filter paper with the solution containing the compound. Activity was assessed at 2 days.

Data set [13] deals with Blatella germanica. Briefly: activity against Blatella germanica with piperonyl butoxide. Conditions: at up to 10 μg per insect (+piperonyl butoxide).

These results are taken from patent publication US5380732A, “Pesticidal compounds” (priority 1986, dated 1995).

Some results are limits rather than exact numbers.

Take `CC(C)CNC(=O)C=CC=CCCCCCCCOc1cccc(Cl)n1` [Example 1, N-Isobutyl 12-(6'-chloro-2'-pyridyloxy)dodeca-2,4-dienamide]: the LD50 entry in [1] is “about 200 ppm”; in data set [2] it was over 1000 ppm; in data set [3], over 1000 ppm; in data set [4], over 1000 ppm; in data set [5], over 1000 ppm. In addition, the “active (mortality)” value in data set [6] (at 200 ppm), in [7] (at 1000 ppm), in data set [8] and in data set [9] (at 1000 ppm) was “active” throughout.
`CC(C)CNC(=O)C=CC=CCCCCCCCOc1ccc(Cl)cn1` [Example 17]: the “active (mortality)” value in data set [6] (at 200 ppm), in data set [10], in [7] (at 200 ppm) and in [9] (at 1000 ppm) was “active” in each case.
Take `CC(/C=C/CCCCCCCOc1ncc(C(F)(F)F)cc1C(F)(F)F)=C(/F)C(=O)NCC(C)C` [Example 38, (2Z,4E)N-Isobutyl 2-fluoro-3-methyl-12-(3,5-bistrifluoromethyl-2-pyridyloxy)dodeca-2,4-dienamide]: the “active (mortality)” value in data set [6] (at 1000 ppm), in [7] (at 40 ppm), in data set [9] (at 200 ppm) and in data set [11] was “active” throughout. Further, the active entry in [12] and in [13] was “active” each time.
